# PubChem BioAssay AID1963854 (Molecular Pharmacology Branch, DTP, NCI, 2024)
# System: 186277-243-T-J2-PDC complex spheroid viability
# Assay: Anticancer human tumor 186277-243-T-J2-PDC patient-derived colon adenocarcinoma cell line growth inhibition [POLQ]
# Conditions: for IC50: curve of first compound; for viability, T/C: stronger effect = lower value
# How it was run: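 Growth inhibition in 3D: complex spheroids (tumor PDC, HUVEC, MSC) treated with POLQ inhibitor combinations; where Cmax unknown, highest tested concentration 10 microM, except SN-38 at 1 microM.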
# [1] = second compound 0.0316 µM, first compound 0.0316 µM
# [2] = second compound 0.0316 µM, first compound 0.1 µM
# [3] = second compound 0.0316 µM, first compound 0.316 µM
# [4] = second compound 0.0316 µM, first compound 1 µM
# [5] = second compound 0.0316 µM, first compound 3.16 µM
# [6] = second compound 0.0316 µM, first compound 10 µM
# [7] = second compound 0.1 µM, first compound 0.0316 µM
# [8] = second compound 0.1 µM, first compound 0.1 µM
# [9] = second compound 0.1 µM, first compound 0.316 µM
# [10] = second compound 0.1 µM, first compound 1 µM
# [11] = second compound 0.1 µM, first compound 3.16 µM
# [12] = second compound 0.1 µM, first compound 10 µM
# [13] = second compound 0.316 µM, first compound 0.0316 µM
# [14] = second compound 0.316 µM, first compound 0.1 µM
# [15] = second compound 0.316 µM, first compound 0.316 µM
# [16] = second compound 0.316 µM, first compound 1 µM
# [17] = second compound 0.316 µM, first compound 3.16 µM
# [18] = second compound 0.316 µM, first compound 10 µM
# [19] = second compound 1 µM, first compound 0.0316 µM
# [20] = second compound 1 µM, first compound 0.1 µM
# [21] = second compound 1 µM, first compound 0.316 µM
# [22] = second compound 1 µM, first compound 1 µM
# [23] = second compound 1 µM, first compound 3.16 µM
# [24] = second compound 1 µM, first compound 10 µM
# [25] = second compound 3.16 µM, first compound 0.0316 µM
# [26] = second compound 3.16 µM, first compound 0.1 µM
# [27] = second compound 3.16 µM, first compound 0.316 µM
# [28] = second compound 3.16 µM, first compound 1 µM
# [29] = second compound 3.16 µM, first compound 3.16 µM
# [30] = second compound 3.16 µM, first compound 10 µM
# [31] = second compound 10 µM, first compound 0.0316 µM
# [32] = second compound 10 µM, first compound 0.1 µM
# [33] = second compound 10 µM, first compound 0.316 µM
# [34] = second compound 10 µM, first compound 1 µM
# [35] = second compound 10 µM, first compound 3.16 µM
# [36] = second compound 10 µM, first compound 10 µM
# 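Note: spheroids exposed to compounds for seven days.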
# 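Throughout, for viability, T/C: 100% = DMSO vehicle control viability.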
compound,measurement,setting,value
COc1cccc2c1C(=O)c1c(O)c3c(c(O)c1C2=O)CC(O)(C(=O)CO)CC3OC1CC(N)C(O)C(C)O1 (stereo not given) + COC1C(OC(N)=O)C(O)C(Oc2ccc3c(O)c(NC(=O)c4ccc(O)c(CC=C(C)C)c4)c(=O)oc3c2C)OC1(C)C,IC50,second compound 0.0316 µM,0.0777 µM
same,IC50,second compound 0.1 µM,0.0887 µM
same,IC50,second compound 0.316 µM,0.0916 µM
same,IC50,second compound 1 µM,0.0924 µM
same,IC50,second compound 3.16 µM,0.0921 µM
same,IC50,second compound 10 µM,0.0864 µM
same,"viability, T/C",[1],89.2%
same,"viability, T/C",[2],38.9%
same,"viability, T/C",[3],9.13%
same,"viability, T/C",[4],0.32%
same,"viability, T/C",[5],0.18%
same,"viability, T/C",[6],0.46%
same,"viability, T/C",[7],94.1%
same,"viability, T/C",[8],44.9%
same,"viability, T/C",[9],8.43%
same,"viability, T/C",[10],0.24%
same,"viability, T/C",[11],0.13%
same,"viability, T/C",[12],0.51%
same,"viability, T/C",[13],90.7%
same,"viability, T/C",[14],46.6%
same,"viability, T/C",[15],9.28%
same,"viability, T/C",[16],0.18%
same,"viability, T/C",[17],0.13%
same,"viability, T/C",[18],0.36%
same,"viability, T/C",[19],92.1%
same,"viability, T/C",[20],46.9%
same,"viability, T/C",[21],9.15%
same,"viability, T/C",[22],0.2%
same,"viability, T/C",[23],0.16%
same,"viability, T/C",[24],0.36%
same,"viability, T/C",[25],88.9%
same,"viability, T/C",[26],47%
same,"viability, T/C",[27],8.15%
same,"viability, T/C",[28],0.24%
same,"viability, T/C",[29],0.2%
same,"viability, T/C",[30],0.37%
same,"viability, T/C",[31],95.8%
same,"viability, T/C",[32],43.3%
same,"viability, T/C",[33],8.67%
same,"viability, T/C",[34],0.31%
same,"viability, T/C",[35],0.31%
same,"viability, T/C",[36],0.68%
CCc1cc2c(N3CCc4c(cc(Cn5ccnc5)cc4-c4cn(C)nc4C(F)(F)F)C3=O)cc(C)nc2c(OC)n1 + Nc1ccc(C#CCN(C(=O)Cc2ncc(C(F)(F)F)cc2C(F)(F)F)c2ccc(F)cc2)nn1,IC50,second compound 0.0316 µM,> 10 µM
same,IC50,second compound 0.1 µM,> 10 µM
same,IC50,second compound 0.316 µM,> 10 µM
same,IC50,second compound 1 µM,> 10 µM
same,IC50,second compound 3.16 µM,> 10 µM
same,IC50,second compound 10 µM,> 10 µM
same,"viability, T/C",[1],97%
same,"viability, T/C",[2],104%
same,"viability, T/C",[3],96%
same,"viability, T/C",[4],117%
same,"viability, T/C",[5],119%
same,"viability, T/C",[6],95.8%
same,"viability, T/C",[7],95.3%
same,"viability, T/C",[8],89.4%
same,"viability, T/C",[9],96.9%
same,"viability, T/C",[10],108%
same,"viability, T/C",[11],124%
same,"viability, T/C",[12],97.2%
same,"viability, T/C",[13],107%
same,"viability, T/C",[14],89.2%
same,"viability, T/C",[15],96.6%
same,"viability, T/C",[16],101%
same,"viability, T/C",[17],89.7%
same,"viability, T/C",[18],86%
same,"viability, T/C",[19],95.1%
same,"viability, T/C",[20],106%
same,"viability, T/C",[21],101%
same,"viability, T/C",[22],98.7%
same,"viability, T/C",[23],114%
same,"viability, T/C",[24],90.6%
same,"viability, T/C",[25],104%
same,"viability, T/C",[26],88.4%
same,"viability, T/C",[27],91.8%
same,"viability, T/C",[28],87.6%
same,"viability, T/C",[29],109%
same,"viability, T/C",[30],87.3%
same,"viability, T/C",[31],102%
same,"viability, T/C",[32],95.5%
same,"viability, T/C",[33],94.1%
same,"viability, T/C",[34],106%
same,"viability, T/C",[35],95.6%
same,"viability, T/C",[36],76.2%
CC1COCCN1c1cc(C2(S(C)(=N)=O)CC2)nc(-c2ccnc3[nH]ccc23)n1 (stereo not given) + COC1C(OC(N)=O)C(O)C(Oc2ccc3c(O)c(NC(=O)c4ccc(O)c(CC=C(C)C)c4)c(=O)oc3c2C)OC1(C)C,IC50,second compound 0.0316 µM,0.793 µM
same,IC50,second compound 0.1 µM,0.817 µM
same,IC50,second compound 0.316 µM,0.798 µM
same,IC50,second compound 1 µM,0.822 µM
same,IC50,second compound 3.16 µM,0.788 µM
same,IC50,second compound 10 µM,0.776 µM
same,"viability, T/C",[1],111%
same,"viability, T/C",[2],96.6%
same,"viability, T/C",[3],117%
same,"viability, T/C",[4],35.3%
same,"viability, T/C",[5],5.81%
same,"viability, T/C",[6],4.54%
same,"viability, T/C",[7],98%
same,"viability, T/C",[8],107%
same,"viability, T/C",[9],111%
same,"viability, T/C",[10],38.1%
same,"viability, T/C",[11],6.12%
same,"viability, T/C",[12],4.78%
same,"viability, T/C",[13],97.5%
same,"viability, T/C",[14],111%
same,"viability, T/C",[15],104%
same,"viability, T/C",[16],36.9%
same,"viability, T/C",[17],6.74%
same,"viability, T/C",[18],4.71%
same,"viability, T/C",[19],95.8%
same,"viability, T/C",[20],98.2%
same,"viability, T/C",[21],105%
same,"viability, T/C",[22],39.8%
same,"viability, T/C",[23],6.98%
same,"viability, T/C",[24],4.23%
same,"viability, T/C",[25],94.8%
same,"viability, T/C",[26],100%
same,"viability, T/C",[27],104%
same,"viability, T/C",[28],37.1%
same,"viability, T/C",[29],6.45%
same,"viability, T/C",[30],5.04%
same,"viability, T/C",[31],108%
same,"viability, T/C",[32],104%
same,"viability, T/C",[33],106%
same,"viability, T/C",[34],34.1%
same,"viability, T/C",[35],7.67%
same,"viability, T/C",[36],5.44%
O=c1[nH]cc(F)c(=O)[nH]1 + COC1C(OC(N)=O)C(O)C(Oc2ccc3c(O)c(NC(=O)c4ccc(O)c(CC=C(C)C)c4)c(=O)oc3c2C)OC1(C)C,IC50,second compound 0.0316 µM,> 10 µM
same,IC50,second compound 0.1 µM,> 10 µM
same,IC50,second compound 0.316 µM,> 10 µM
same,IC50,second compound 1 µM,9.82 µM
same,IC50,second compound 3.16 µM,9.69 µM
same,IC50,second compound 10 µM,9.8 µM
same,"viability, T/C",[1],88%
same,"viability, T/C",[2],100%
same,"viability, T/C",[3],104%
same,"viability, T/C",[4],106%
same,"viability, T/C",[5],70%
same,"viability, T/C",[6],49.9%
same,"viability, T/C",[7],92%
same,"viability, T/C",[8],105%
same,"viability, T/C",[9],104%
same,"viability, T/C",[10],100%
same,"viability, T/C",[11],70%
same,"viability, T/C",[12],52%
same,"viability, T/C",[13],104%
same,"viability, T/C",[14],108%
same,"viability, T/C",[15],114%
same,"viability, T/C",[16],119%
same,"viability, T/C",[17],69.3%
same,"viability, T/C",[18],49.6%
same,"viability, T/C",[19],109%
same,"viability, T/C",[20],111%
same,"viability, T/C",[21],86.2%
same,"viability, T/C",[22],102%
same,"viability, T/C",[23],69%
same,"viability, T/C",[24],49.8%
same,"viability, T/C",[25],102%
same,"viability, T/C",[26],115%
same,"viability, T/C",[27],109%
same,"viability, T/C",[28],107%
same,"viability, T/C",[29],66.9%
same,"viability, T/C",[30],49.1%
same,"viability, T/C",[31],117%
same,"viability, T/C",[32],97.2%
same,"viability, T/C",[33],108%
same,"viability, T/C",[34],105%
same,"viability, T/C",[35],73.5%
same,"viability, T/C",[36],49.6%
O=C(Nc1ccc(O)c(NS(=O)(=O)c2ccc(F)cc2)c1)c1ccc(-c2ccccc2)cc1 + Cc1cccc(N(C)C(=O)C2C(O)CCN2c2nc(C)cc(C(F)(F)F)c2C#N)c1,IC50,second compound 0.0316 µM,> 10 µM
same,IC50,second compound 0.1 µM,> 10 µM
same,IC50,second compound 0.316 µM,> 10 µM
same,IC50,second compound 1 µM,> 10 µM
same,IC50,second compound 3.16 µM,> 10 µM
same,IC50,second compound 10 µM,> 10 µM
same,"viability, T/C",[1],93.9%
same,"viability, T/C",[2],98.5%
same,"viability, T/C",[3],108%
same,"viability, T/C",[4],86.1%
same,"viability, T/C",[5],116%
same,"viability, T/C",[6],107%
same,"viability, T/C",[7],108%
same,"viability, T/C",[8],102%
same,"viability, T/C",[9],104%
same,"viability, T/C",[10],88.9%
same,"viability, T/C",[11],108%
same,"viability, T/C",[12],105%
same,"viability, T/C",[13],86.6%
same,"viability, T/C",[14],106%
same,"viability, T/C",[15],110%
same,"viability, T/C",[16],103%
same,"viability, T/C",[17],102%
same,"viability, T/C",[18],108%
same,"viability, T/C",[19],95%
same,"viability, T/C",[20],111%
same,"viability, T/C",[21],103%
same,"viability, T/C",[22],104%
same,"viability, T/C",[23],107%
same,"viability, T/C",[24],109%
same,"viability, T/C",[25],102%
same,"viability, T/C",[26],94.8%
same,"viability, T/C",[27],102%
same,"viability, T/C",[28],90.8%
same,"viability, T/C",[29],103%
same,"viability, T/C",[30],112%
same,"viability, T/C",[31],100%
same,"viability, T/C",[32],106%
same,"viability, T/C",[33],86.7%
same,"viability, T/C",[34],95.2%
same,"viability, T/C",[35],107%
same,"viability, T/C",[36],115%
